{"source": "patent US9649324B2", "about": "“Use of tylvalosin as antiviral agent” (ECO ANIMAL HEALTH LIMITED, priority 2006, dated 2017)", "key": {"[1]": {"test_system": "HRT-18 cells", "experiment": "Intracellular accumulation of macrolides in HRT-18 cells", "format": "in vitro ADME, human", "conditions": "for average intracellular concentration / intracellular:extracellular ratio: 10 μg/mL antibiotic", "method": "HRT-18 cells, in 6 cm tissue cultures dishes, were incubated in the presence of 0.5, 5 or 50 μg/mL tylvalosin. After 4 h, two dishes for each tylvalosin concentration and two dishes without antibiotic were removed from the incubator. A sample of medium (about 1 mL) was removed, placed in a labelled Eppendorf tube and stored at −20° C. The rest of the medium was then removed. Each of the cell monolayers was washed twice in PBS, using approximately 5 mL for each wash. The plunger from a 2 mL plastic syringe was used to gently scrape off the cells. PBS (500 μL) was added to the dish and the cells gently removed into this medium, using a micropipette. The sample was then placed in an Eppendorf tube and centrifuged at 8000×g in a bench centrifuge (Biofuge pico, Heraeus instruments) for 13 sec. An obvious cell pellet formed. The supernatant was removed using a micropipette and the cell material was stored at −20° C. in a labelled Eppendorf tube. After approximately 24 h the remaining tissue culture dishes were removed from the incubator and treated as described above for the 4 h samples. All the samples, including the 4 h samples, were then stored at −70° C.\nHRT-18 cells were prepared as described above and used at passage 42. Stock solutions of antibiotics (either tylvalosin, tylosin or tilmicosin) were diluted in growth media and 10 μg/mL each antibiotic was added to the confluent cell monolayers. The cells were incubated at 37° C. in a 5% CO2 atmosphere for either 4 h or 24 h. The media and cells were harvested and tested for antibiotic, as described above.\nAll the supernatant and cell samples were transported frozen (at approximately −20° C.) to York Bioanalytical Solutions (York, England) for analysis. Briefly, 0.25 g of buffer (RPMI medium containing 10% FCS) was weighed into a polypropylene tube. A 50 μL volume of the appropriate working solution was added to the quality control (QC) samples. Methanol (50 μL) was added to each blank sample used for preparation of calibration standards, recovery samples and reagent blanks. A 2.5 mL volume of 0.1 M phosphate buffer was added to each sample, vortex mixed for approximately 1 min and then centrifuged at 3220×g for 10 min at 4° C.\nFor the liquid-liquid clean-up phase, an aliquot (100 μL) of the supernatant was transferred to a polypropylene tube. The pH was adjusted to pH 8-8.5 by the addition of 0.1 M NaOH, and vortex mixed. Ethyl acetate (5 mL) was added and after capping, the whole mixture was shaken for 10 min and then centrifuged at 3220×g for 10 min at 4° C.\nAmmonium acetate (20 mM; pH native)—formic acid, 1000:3, v/v (100 μL) was added to each well in a 2 mL polypropylene collection plate. An aliquot of the ethyl acetate mixture (100 μL) was transferred to the polypropylene collection plate and evaporated under nitrogen (40° C.) until the ethyl acetate was fully evaporated whilst the ammonium acetate remained. Methanol (100 μL) was added to each well, excluding the calibration standards.\nTo each well containing a calibration standard, 100 μL of the appropriate calibration working solution was added. Samples were then vortex mixed for at least 10 min and submitted for liquid chromatography with tandem mass spectrometric analysis. The method stated was applicable to the samples of media (and the calibration standards and quality control samples).\nFor the cells, the sample tubes were weighed, and 100 μL of acetonitrile was added. The samples were vortex mixed for 10 sec, then centrifuged at 10285×g at 4° C. for 5 min. The sample was transferred to a polypropylene tube. The original sample tube was washed with 0.1 M phosphate buffer (1 mL). This was transferred to the polypropylene tube. A second wash of 1 mL was made, then a final wash of 0.5 mL. The polypropylene tube was now at the same stage as the end of the liquid extraction, but with the cells present rather than media. This was then taken through the sample preparation as described above. […]"}, "[2]": {"test_system": "PR8 strain of influenza A virus", "experiment": "Influenza infection of MDCK cells, immunofluorescence (Example 4), strain PR8", "format": "cell-based, human influenza", "conditions": "1 μg/ml, 4 h pretreatment, moi 10, fixed 4 h post infection"}, "[3]": {"test_system": "PRRSV", "experiment": "Inhibitors of PRRSV infection added at various times pre and post infection (Example 7)", "format": "cell-based"}, "[4]": {"test_system": "endosomal pH", "experiment": "Acridine orange assay of endosomal pH (Example 13)", "format": "cell-based", "method": "Acridine orange is a dye that causes cells to fluoresce green with the exception of acidic compartments (such as endosomes) that appear red—due to the protonation of the dye and quenching of the green fluorescence. A substance that raises the endosomal pH will prevent the appearance of the red fluorescence. The effect of Aivlosin® and other macrolide antibiotics on a the staining of endosomes by acridine orange in number of cells lines was determined (see FIG. 19). An area of cells grown on a glass coverslip is first selected using a DAPI stain. […] This selection procedure helps reduce any bias in the results. The green and red filters on the epifluorescence microscope were then used to examine about 20 cells. The number of red spots (endosome vesicles) in was determined. The average number of Acridine orange stained endosomes was counted."}, "[5]": {"conditions": "orally administered, in vivo (Okamoto et al., 1981); cited from earlier work"}, "[6]": {"conditions": "added 2 or 4 hours after infection"}}, "data": [{"smiles": "CCC1OC(=O)CC(OC(C)=O)C(C)C(OC2OC(C)C(OC3CC(C)(O)C(OC(=O)CC(C)C)C(C)O3)C(N(C)C)C2O)C(CC=O)CC(C)C(=O)C=CC(C)=CC1COC1OC(C)C(O)C(OC)C1OC", "note": "(centres unmarked) [tylvalosin, 3-O acetyl-4″-O-isovaleryltylosin]", "values": [{"measurement": "average intracellular concentration", "setting": "[1]; HRT-18 cells, 4 h", "value": 61.8, "unit": "μg/mg cells"}, {"measurement": "intracellular:extracellular ratio", "setting": "[1]; HRT-18 cells, 4 h", "value": 5.13, "unit": "fold"}, {"measurement": "average intracellular concentration", "setting": "[1]; HRT-18 cells, 24 h", "value": 57.6, "unit": "μg/mg cells"}, {"measurement": "intracellular:extracellular ratio", "setting": "[1]; HRT-18 cells, 24 h", "value": 5.34, "unit": "fold"}, {"measurement": "concentration of tylvalosin accumulated in the cells", "setting": "[1]; HRT-18 cells, 0.5, 5 or 50 μg/mL tylvalosin, within 4 h", "value": "at least 585 μg"}, {"measurement": "cell:medium concentration ratio", "setting": "[1]; HRT-18 cells, 24 h incubation, compared with 4 h", "value": "lower"}, {"measurement": "inhibition of infection of MDCK cells", "setting": "[2]", "value": "completely inhibited"}, {"measurement": "PRRSV spread", "setting": "[3]; [6]", "value": "inhibited"}, {"measurement": "initial PRRSV infection (initial site of infection)", "setting": "[3]; [6]", "value": "inhibited"}, {"measurement": "initial PRRSV infection", "setting": "[3]; added 4 hours before infection", "value": "inhibited"}, {"measurement": "initial PRRSV infection", "setting": "[3]; added at the time of infection", "value": "inhibited"}, {"measurement": "effect on raising the pH in the endosomes", "setting": "[4]; acridine orange stained endosomes, any cell line", "value": "raises the pH in endosomes"}, {"measurement": "effect on endosomal pH", "setting": "[4]; epithelial cells", "value": "greater effects than tilmicosin"}, {"measurement": "blood levels", "setting": "[5]", "value": "higher blood levels than tylosin"}]}]}
